Some results are limits rather than exact numbers.

Usually Kd stands for the constant that tells how readily two partners part at equilibrium. Lower therefore signals tighter binding.

The test deals with human TYK2 (JH2domain-pseudokinase) (Homo sapiens (Human), UniProt P29597). In words: TYK2 JH2 Domain Binding Assay (KINOMEscan, DiscoveRx). To be noted: 11-point dilution, duplicate. In short, it runs like this: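 Kd from duplicate 11-point 3-fold dilutions starting at 30,000 nM, fitted by Hill equation with slope fixed at −1. Compounds (final 0.9% DMSO) displace DNA-tagged HEK293-expressed TYK2 JH2 fusion (<0.1 nM) from ligand-coated beads over 1 h at room temperature; eluted kinase read by qPCR.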
Sequence of human TYK2 (JH2domain-pseudokinase) (P29597 556-888): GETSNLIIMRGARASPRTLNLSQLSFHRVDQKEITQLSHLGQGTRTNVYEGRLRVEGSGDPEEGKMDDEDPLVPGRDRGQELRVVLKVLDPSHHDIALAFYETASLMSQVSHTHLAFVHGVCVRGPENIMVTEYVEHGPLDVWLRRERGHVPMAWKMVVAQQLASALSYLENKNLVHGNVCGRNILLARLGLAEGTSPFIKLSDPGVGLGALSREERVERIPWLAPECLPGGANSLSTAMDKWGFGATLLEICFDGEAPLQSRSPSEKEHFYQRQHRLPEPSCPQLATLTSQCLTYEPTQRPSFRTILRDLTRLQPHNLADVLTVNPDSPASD
In turn, `Cc1ncc(Nc2cc(Nc3ccc(C4CCCCO4)cc3S(C)(=O)=O)c3nc(C(F)F)[nH]c3n2)nc1C` (stereo not drawn) [I-397, 2-(difluoromethyl)-N5-(5,6-dimethylpyrazin-2-yl)-N7-(2-(methylsulfonyl)-4-(tetrahydro-2H-pyran-2-yl)phenyl)-3H-imidazo[4,5-b]pyridine-5,7-diamine] displayed a Kd of 0.1 to 0.5 nM.
Next, `Cc1nc2c(Nc3ccc(C4CCCCO4)cc3S(C)(=O)=O)cc(Nc3cnc(C)c(C)n3)nc2[nH]1` (stereo not drawn) [I-398, N5-(5,6-dimethylpyrazin-2-yl)-2-methyl-N7-(2-(methylsulfonyl)-4-(tetrahydro-2H-pyran-2-yl)phenyl)-3H-imidazo[4,5-b]pyridine-5,7-diamine]: below 0.1 nM; `CC1(C)CC(c2ccc(Nc3cc(NC(=O)C4CC4)nc4[nH]c(C(F)F)nc34)c(S(C)(=O)=O)c2)CC(C)(C)O1` [I-399]: above 10 nM.
Under `COC(C)c1ccc(Nc2cc(NC(=O)C3CC3)nc3[nH]c(C)nc23)c(S(C)(=O)=O)c1` (stereo not drawn) [I-400, N-(7-((4-(1-methoxyethyl)-2-(methylsulfonyl)phenyl)amino)-2-methyl-3H-imidazo[4,5-b]pyridin-5-yl)cyclopropanecarboxamide] stands 0.1 to 0.5 nM; under `CS(=O)(=O)c1cc(C2CCCCO2)ccc1Nc1cc(NC(=O)C2CC2)nc2[nH]c(C(F)F)nc12` (stereo not drawn) [I-401, N-(2-(difluoromethyl)-7-((2-(methylsulfonyl)-4-(tetrahydro-2H-pyran-2-yl)phenyl)amino)-3H-imidazo[4,5-b]pyridin-5-yl)cyclopropanecarboxamide], below 0.1 nM.
With `COC(C)c1ccc(Nc2cc(NC(=O)C3CC3)nc3[nH]c(C(F)F)nc23)c(S(C)(=O)=O)c1` (stereo not drawn) [I-402, N-(2-(difluoromethyl)-7-((4-(1-methoxyethyl)-2-(methylsulfonyl)phenyl)amino)-3H-imidazo[4,5-b]pyridin-5-yl)cyclopropanecarboxamide], the dissociation constant Kd fell in the range of 0.5 to 1 nM.
Next, `COc1c(Nc2cc(Nc3ccc(NCCCCl)c(C#N)n3)nc3[nH]c(C)nc23)cccc1-c1nnn(C)n1` [I-403, 3-((3-chloropropyl)amino)-6-((7-((2-methoxy-3-(2-methyl-2H-tetrazol-5-yl)phenyl)amino)-2-methyl-3H-imidazo[4,5-b]pyridin-5-yl)amino)picolinonitrile]: 0.5 to 1 nM; `Cn1cncc1-c1ccc(Nc2cc(NC(=O)[C@H]3C[C@H]3F)nc3[nH]c(C(F)F)nc23)c(S(C)(=O)=O)c1` [I-405, (1R,2R)—N-(2-(difluoromethyl)-7-((4-(1-methyl-1H-imidazol-5-yl)-2-(methylsulfonyl)phenyl)amino)-3H-imidazo[4,5-b]pyridin-5-yl)-2-fluorocyclopropane-1-carboxamide]: 0.1 to 0.5 nM.
Take `Cc1cn(C)nc1-c1ccc(Nc2cc(NC(=O)[C@@H]3C[C@@H]3F)nc3[nH]c(C(F)F)nc23)c(S(C)(=O)=O)c1` [I-406, (1 S,2S)—N-(2-(difluoromethyl)-7-((4-(1,4-dimethyl-1H-pyrazol-3-yl)-2-(methylsulfonyl)phenyl)amino)-3H-imidazo[4,5-b]pyridin-5-yl)-2-fluorocyclopropane-1-carboxamide]: the equilibrium dissociation constant (Kd) is below 0.1 nM.
Compound `Cc1cn(C)nc1-c1ccc(Nc2cc(NC(=O)[C@H]3C[C@H]3F)nc3[nH]c(C(F)F)nc23)c(S(C)(=O)=O)c1` [I-407, (1R,2R)—N-(2-(difluoromethyl)-7-((4-(1,4-dimethyl-1H-pyrazol-3-yl)-2-(methylsulfonyl)phenyl)amino)-3H-imidazo[4,5-b]pyridin-5-yl)-2-fluorocyclopropane-1-carboxamide] had a dissociation constant (Kd) of 0.1 to 0.5 nM.
Regarding `CP(C)(=O)c1cc(C2CCOCC2)ccc1Nc1cc(NC(=O)C2CC2)nc2[nH]c(C(F)F)nc12` [I-408, N-(2-(difluoromethyl)-7-((2-(dimethylphosphoryl)-4-(tetrahydro-2H-pyran-4-yl)phenyl)amino)-3H-imidazo[4,5-b]pyridin-5-yl)cyclopropanecarboxamide], the Kd was in the range of 0.5 to 1 nM.
Next, `CS(=O)(=O)c1cc(C2CC2)ccc1Nc1cc(Nc2cc3n(n2)CCCCC3)nc2[nH]c(C(F)F)nc12` [I-409, N7-(4-cyclopropyl-2-(methylsulfonyl)phenyl)-2-(difluoromethyl)-N5-(5,6,7,8-tetrahydro-4H-pyrazolo[1,5-a]azepin-2-yl)-3H-imidazo[4,5-b]pyridine-5,7-diamine]: 0.1 to 0.5 nM.
Take `Cc1nc2c(Nc3ccc(C4CC4)cc3S(C)(=O)=O)cc(Nc3cc4n(n3)CCCCC4)nc2[nH]1` [I-410, N7-(4-cyclopropyl-2-(methylsulfonyl)phenyl)-2-methyl-N5-(5,6,7,8-tetrahydro-4H-pyrazolo[1,5-a]azepin-2-yl)-3H-imidazo[4,5-b]pyridine-5,7-diamine]: the Kd is 0.1 to 0.5 nM.
Next, `Cc1nc2c(Nc3ccc(C4CCC4)cc3S(C)(=O)=O)cc(NC(=O)[C@@H]3CC3(F)F)nc2[nH]1` [I-411, (S)—N-(7-((4-cyclobutyl-2-(methylsulfonyl)phenyl)amino)-2-methyl-3H-imidazo[4,5-b]pyridin-5-yl)-2,2-difluorocyclopropane-1-carboxamide]: 1 to 10 nM; `Cc1nc2c(Nc3ccc(C4CCC4)cc3S(C)(=O)=O)cc(NC(=O)[C@H]3CC3(F)F)nc2[nH]1` [I-412, (R)—N-(7-((4-cyclobutyl-2-(methylsulfonyl)phenyl)amino)-2-methyl-3H-imidazo[4,5-b]pyridin-5-yl)-2,2-difluorocyclopropane-1-carboxamide]: above 10 nM; `Cc1nc2c(Nc3ccc(C4CCC4)cc3S(C)(=O)=O)cc(NC(=O)[C@H]3C[C@H]3F)nc2[nH]1` [I-413, (1R,2R)—N-(7-((4-cyclobutyl-2-(methylsulfonyl)phenyl)amino)-2-methyl-3H-imidazo[4,5-b]pyridin-5-yl)-2-fluorocyclopropane-1-carboxamide]: 0.5 to 1 nM.
Under `Cc1nc2c(Nc3ccc(C4CCC4)cc3S(C)(=O)=O)cc(NC(=O)[C@@H]3C[C@@H]3F)nc2[nH]1` [I-414, (1S,2S)—N-(7-((4-cyclobutyl-2-(methylsulfonyl)phenyl)amino)-2-methyl-3H-imidazo[4,5-b]pyridin-5-yl)-2-fluorocyclopropane-1-carboxamide] stands 0.1 to 0.5 nM; under `Cc1nc(-c2ccc(Nc3cc(NC(=O)C4CC4)nc4[nH]c(C(F)F)nc34)c(S(C)(=O)=O)c2)sc1C` [I-415, N-(2-(difluoromethyl)-7-((4-(4,5-dimethylthiazol-2-yl)-2-(methylsulfonyl)phenyl)amino)-3H-imidazo[4,5-b]pyridin-5-yl)cyclopropanecarboxamide], 1 to 10 nM; under `Cc1cc(Nc2cc(Nc3ccc(C4CC4)cc3S(C)(=O)=O)c3nc(C(F)F)[nH]c3n2)nc(C)n1` [I-416, N7-(4-cyclopropyl-2-(methylsulfonyl)phenyl)-2-(difluoromethyl)-N5-(2,6-dimethylpyrimidin-4-yl)-3H-imidazo[4,5-b]pyridine-5,7-diamine], 0.1 to 0.5 nM.
Next, `Cc1ncc(Nc2cc(Nc3ccc(C4CC4)cc3S(C)(=O)=O)c3nc(C(F)F)[nH]c3n2)nc1C` [I-417, N7-(4-cyclopropyl-2-(methylsulfonyl)phenyl)-2-(difluoromethyl)-N5-(5,6-dimethylpyrazin-2-yl)-3H-imidazo[4,5-b]pyridine-5,7-diamine]: 1 to 10 nM.
Regarding `Cc1ccc(-c2ccc(Nc3cc(NC(=O)C4CC4)nc4[nH]c(C(F)F)nc34)c(S(C)(=O)=O)c2)o1` [I-418, N-(2-(difluoromethyl)-7-((4-(5-methylfuran-2-yl)-2-(methylsulfonyl)phenyl)amino)-3H-imidazo[4,5-b]pyridin-5-yl)cyclopropanecarboxamide], the Kd is 1 to 10 nM.
In turn, `Cc1nc2c(Nc3ccc(-c4ccc(C)o4)cc3S(C)(=O)=O)cc(NC(=O)C3CC3)nc2[nH]1` [I-419, N-(2-methyl-7-((4-(5-methylfuran-2-yl)-2-(methylsulfonyl)phenyl)amino)-3H-imidazo[4,5-b]pyridin-5-yl)cyclopropanecarboxamide] yielded an equilibrium dissociation constant (Kd) of 0.1 to 0.5 nM.
Next, `Cc1cc(-c2ccc(Nc3cc(NC(=O)C4CC4)nc4[nH]c(C(F)F)nc34)c(S(C)(=O)=O)c2)oc1C` [I-420, N-(2-(difluoromethyl)-7-((4-(4,5-dimethylfuran-2-yl)-2-(methylsulfonyl)phenyl)amino)-3H-imidazo[4,5-b]pyridin-5-yl)cyclopropanecarboxamide]: 1 to 10 nM; `Cc1nc2c(Nc3ccc(-c4cc(C)c(C)o4)cc3S(C)(=O)=O)cc(NC(=O)C3CC3)nc2[nH]1` [I-421, N-(7-((4-(4,5-dimethylfuran-2-yl)-2-(methylsulfonyl)phenyl)amino)-2-methyl-3H-imidazo[4,5-b]pyridin-5-yl)cyclopropanecarboxamide]: 0.1 to 0.5 nM.
Under `Cc1nc2c(Nc3ccc([C@H]4CCCO4)cc3S(C)(=O)=O)cc(NC(=O)[C@@H]3CC3(F)F)nc2[nH]1` [I-422, (S)-2,2-difluoro-N-(2-methyl-7-((2-(methylsulfonyl)-4-((R)-tetrahydrofuran-2-yl)phenyl)amino)-3H-imidazo[4,5-b]pyridin-5-yl)cyclopropane-1-carboxamide] stands 0.5 to 1 nM; under `Cc1nc2c(Nc3ccc([C@H]4CCCO4)cc3S(C)(=O)=O)cc(NC(=O)[C@H]3CC3(F)F)nc2[nH]1` [I-423, (R)-2,2-difluoro-N-(2-methyl-7-((2-(methylsulfonyl)-4-((R)-tetrahydrofuran-2-yl)phenyl)amino)-3H-imidazo[4,5-b]pyridin-5-yl)cyclopropane-1-carboxamide], 1 to 10 nM.
Under `CS(=O)(=O)c1cc([C@@H]2CCCO2)ccc1Nc1cc(NC(=O)C2CC2)nc2[nH]c(C(F)F)nc12` [I-424, (S)—N-(2-(difluoromethyl)-7-((2-(methylsulfonyl)-4-(tetrahydrofuran-2-yl)phenyl)amino)-3H-imidazo[4,5-b]pyridin-5-yl)cyclopropanecarboxamide] stands below 0.1 nM.
